Results published in patent publication US12129254B1, “Pyrimido[6′,1′:2,3]imidazo[4,5-b][1,6]naphthyridine compounds as CK2 inhibitors” (KING FAISAL UNIVERSITY, priority 2023, dated 2024).

How the values were obtained:
PC3 (prostate) = test: In vitro cytotoxic activity (MTT) assay, PC3; format: cell-based; conditions: Homo sapiens, Prostate cell; PC3 (prostate) cells, exposed for 96 hours; read-out: IC50, concentration of compound eliciting a 50% inhibition of cell proliferation
Method: (§1) Compounds 1-16 were screened for their in vitro cytotoxic activity utilizing a 3-(4,5-dimethyl-thiazol-2-yl)-2,5-diphenyltetrazolium bromide (MTT) assay against selected cancer human cell lines consisting of PC3 (prostate), HCT116 (colon), A375 (melanoma), H1299 (lung), MIAPaCa-2 (pancreas), HL60 (leukemia), MCF7 (breast), MDA-MB-231 (breast) (T. Mosmann, J. Immunol. Meth., 1983, 65, 55-63). The cells were cultured at 37° C. in RMPI1640 medium supplemented with 10% fetal bovine serum, 50 IU/mL penicillin, and 50 μg/mL streptomycin in a 5% CO2 incubator. All cells were sub-cultured 3 times/week by trypsinisation. Viable cells were seeded and allowed to adhere for 12 h before a test drug was added in 96-well plates at an initial density of 1.0×10^5 cells/mL. Tumour cell lines were separately exposed to various concentrations of the tested compounds followed by incubation at a temperature of 37° C. during 96 h inside a medium of fresh RMPI 1640. Cells were subsequently incubated at 37° C. using MTT at 0.5 mg/mL during 4 h. After removal of supernatant, formazan crystals were dissolved in isopropanol and the optical density was measured at 570 nm. CX-4945 was used as a positive control.

HCT116 (colon) = test: In vitro cytotoxic activity (MTT) assay, HCT116; format: cell-based; conditions: Homo sapiens, HCT-116; HCT116 (colon) cells, exposed for 96 hours; read-out: IC50, concentration of compound eliciting a 50% inhibition of cell proliferation
Method: as §1

A375 (melanoma) = test: In vitro cytotoxic activity (MTT) assay, A375; format: cell-based; conditions: Homo sapiens, A-375; A375 (melanoma) cells, exposed for 96 hours; read-out: IC50, concentration of compound eliciting a 50% inhibition of cell proliferation
Method: as §1

H1299 (lung) = test: In vitro cytotoxic activity (MTT) assay, H1299; format: cell-based; conditions: Homo sapiens, NCI-H1299; H1299 (lung) cells, exposed for 96 hours; read-out: IC50, concentration of compound eliciting a 50% inhibition of cell proliferation
Method: as §1

MIAPaCa-2 (pancreas) = test: In vitro cytotoxic activity (MTT) assay, MIAPaCa-2; format: cell-based; conditions: Homo sapiens, MIA PaCa-2; MIAPaCa-2 (pancreas) cells, exposed for 96 hours; read-out: IC50, concentration of compound eliciting a 50% inhibition of cell proliferation
Method: as §1

HL60 (leukemia) = test: In vitro cytotoxic activity (MTT) assay, HL60; format: cell-based; conditions: Homo sapiens, HL-60; HL60 (leukemia) cells, exposed for 96 hours; read-out: IC50, concentration of compound eliciting a 50% inhibition of cell proliferation
Method: as §1

MCF7 (breast) = test: In vitro cytotoxic activity (MTT) assay, MCF7; format: cell-based; conditions: Homo sapiens; MCF7 (breast) cells, exposed for 96 hours; read-out: IC50, concentration of compound eliciting a 50% inhibition of cell proliferation
Method: as §1

MDA-MB-231 (breast) = test: In vitro cytotoxic activity (MTT) assay, MDA-MB-231; format: cell-based; conditions: Homo sapiens; MDA-MB-231 (breast) cells, exposed for 96 hours; read-out: IC50, concentration of compound eliciting a 50% inhibition of cell proliferation
Method: as §1

[1] = target: T1, recombinant human CK2 (RRββ-holoenzyme) (Homo sapiens, UniProt P68400); test: CK2 Kinase Assay (radiometric, [γ-33P] ATP); format: biochemical; conditions: final ATP concentration 15 μM, 10 min at 30° C., eight concentrations; read-out: protein kinase CK2 IC50
T1 construct: purchased Millipore
Method: CK2 Kinase Assay was conducted using the protocol as described in Pierre F. et al; J. Med. Chem. 2011, 54, 635-654. The tested compounds in aqueous solution were added at a volume of 10 μL to a reaction mixture comprising 10 μL of assay dilution buffer (ADB; 20 mM MOPS, pH 7.2, 25 mM β-glycerol phosphate, 5 mM EGTA, 1 mM sodium orthovanadate, and 1 mM dithiothreitol), 10 μL of substrate peptide (RRRDDDSDDD, dissolved in ADB at a concentration of 1 mM), 10 μL of recombinant human CK2 (RRββ-holoenzyme, 25 ng dissolved in ADB; Millipore). Reactions were initiated by the addition of 10 μL of ATP solution (90% 75 mMMgCl2, 75 μM ATP (final ATP concentration: 15 μM) dissolved in ADB; 10% [γ-33P] ATP (stock 1 mCi/100 μL; 3000 Ci/mmol (Perkin-Elmer) and maintained for 10 min at 30° C. The reactions were quenched with 100 μL of 0.75% phosphoric acid and then transferred to and filtered through a phosphor cellulose filter plate (Millipore). After washing each well five times with 0.75% phosphoric acid, the plate was dried under vacuum for 5 min and, following the addition of 15 μL of scintillation fluid to each well, the residual radioactivity was measured using a Wallac luminescence counter. The IC50 values were derived from eight concentrations of test inhibitors.

T1 sequence (P68400 whole entry): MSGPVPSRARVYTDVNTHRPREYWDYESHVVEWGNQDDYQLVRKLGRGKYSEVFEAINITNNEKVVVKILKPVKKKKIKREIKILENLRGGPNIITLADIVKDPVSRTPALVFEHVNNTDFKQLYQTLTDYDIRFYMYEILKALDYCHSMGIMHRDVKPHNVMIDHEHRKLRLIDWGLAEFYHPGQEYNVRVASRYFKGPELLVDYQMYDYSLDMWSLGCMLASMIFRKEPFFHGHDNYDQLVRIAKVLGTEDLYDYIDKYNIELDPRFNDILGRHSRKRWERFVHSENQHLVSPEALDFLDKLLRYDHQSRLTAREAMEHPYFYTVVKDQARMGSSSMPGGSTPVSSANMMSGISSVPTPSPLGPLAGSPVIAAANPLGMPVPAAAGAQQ
T1 sequence (P67870 whole entry partner): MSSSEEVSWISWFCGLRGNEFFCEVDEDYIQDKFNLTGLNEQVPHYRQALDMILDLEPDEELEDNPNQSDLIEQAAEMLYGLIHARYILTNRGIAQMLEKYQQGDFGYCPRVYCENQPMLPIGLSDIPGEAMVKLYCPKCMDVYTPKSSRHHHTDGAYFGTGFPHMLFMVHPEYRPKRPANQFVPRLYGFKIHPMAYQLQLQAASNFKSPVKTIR

IC50 [1]: 138 nM
Structure (SMILES): Clc1cccc(Nc2c3cnccc3nc3c2nc2ccncn23)c1 [Compound 1, N-(3-chlorophenyl)pyrimido[6′,1′:2,3]imidazo[4,5-b][1,6]naphthyridin-12-amine]
IC50 (PC3 (prostate)): 2200 nM | IC50 (HCT116 (colon)): 1700 nM | IC50 (A375 (melanoma)): 3000 nM | IC50 (H1299 (lung)): 2500 nM | IC50 (MIAPaCa-2 (pancreas)): 1400 nM | IC50 (HL60 (leukemia)): 3100 nM | IC50 (MCF7 (breast)): 5900 nM | IC50 (MDA-MB-231 (breast)): 4700 nM
